In publication PMC3310290 (Bioconjugate Chemistry, 2012):
Positions of bridges follow the written chain, without caps; N, C: chain ends. Residues, ends and D or L forms follow the SMILES beside them. *: point of attachment. 5FAM = O=C1OC2(c3ccc(O)cc3Oc3cc(O)ccc32)c2ccc(C(=O)*)cc21; DTPA = O=C(O)CN(CCN(CC(=O)O)CC(=O)O)CCN(CC(=O)O)CC(=O)*; Ahx = NCCCCCC(=O)O

What was measured:
fibrin [1] = target: T1, fibrin (Homo sapiens, UniProt P02671+P02675+P02679); experiment: Solvent water 1H relaxation rate; type: physicochemical; details: 30 μM fibrin, 0.47T, 37°C
T1 sequence (P02671 36-866 limits assumed): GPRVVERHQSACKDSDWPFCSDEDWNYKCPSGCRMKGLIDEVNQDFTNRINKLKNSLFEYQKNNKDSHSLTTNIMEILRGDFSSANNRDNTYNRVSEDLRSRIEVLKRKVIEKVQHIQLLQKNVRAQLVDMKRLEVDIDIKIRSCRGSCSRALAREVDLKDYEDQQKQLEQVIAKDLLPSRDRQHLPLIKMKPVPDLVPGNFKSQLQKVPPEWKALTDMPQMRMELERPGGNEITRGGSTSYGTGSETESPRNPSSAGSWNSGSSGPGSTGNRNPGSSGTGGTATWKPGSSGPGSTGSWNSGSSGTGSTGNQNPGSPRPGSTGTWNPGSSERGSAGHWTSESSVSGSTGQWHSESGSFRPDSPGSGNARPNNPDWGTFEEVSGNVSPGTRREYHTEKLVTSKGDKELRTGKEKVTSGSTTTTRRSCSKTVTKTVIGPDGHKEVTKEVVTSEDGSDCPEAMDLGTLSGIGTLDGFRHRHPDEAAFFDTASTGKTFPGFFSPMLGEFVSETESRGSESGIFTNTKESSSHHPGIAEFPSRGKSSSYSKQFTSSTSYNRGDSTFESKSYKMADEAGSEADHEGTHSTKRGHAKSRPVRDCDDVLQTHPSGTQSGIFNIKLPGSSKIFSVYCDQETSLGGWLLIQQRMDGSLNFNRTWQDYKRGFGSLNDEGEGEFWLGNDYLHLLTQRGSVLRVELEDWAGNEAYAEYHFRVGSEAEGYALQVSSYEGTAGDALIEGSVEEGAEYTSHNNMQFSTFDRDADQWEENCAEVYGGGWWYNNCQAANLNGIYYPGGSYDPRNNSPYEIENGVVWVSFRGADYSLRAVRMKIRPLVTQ
T1 sequence (P02675 45-491 limits assumed): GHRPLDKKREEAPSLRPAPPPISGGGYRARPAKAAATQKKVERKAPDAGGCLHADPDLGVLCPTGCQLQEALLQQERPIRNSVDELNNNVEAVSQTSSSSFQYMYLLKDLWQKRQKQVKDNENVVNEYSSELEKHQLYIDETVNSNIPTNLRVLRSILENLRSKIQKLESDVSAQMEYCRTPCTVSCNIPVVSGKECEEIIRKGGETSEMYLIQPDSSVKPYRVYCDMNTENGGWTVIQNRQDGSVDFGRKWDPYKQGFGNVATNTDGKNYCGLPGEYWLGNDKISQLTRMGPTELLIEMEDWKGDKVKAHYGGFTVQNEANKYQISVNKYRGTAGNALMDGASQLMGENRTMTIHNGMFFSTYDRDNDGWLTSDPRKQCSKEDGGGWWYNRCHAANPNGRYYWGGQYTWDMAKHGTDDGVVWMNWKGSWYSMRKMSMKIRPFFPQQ
T1 sequence (P02679 27-433 limits assumed): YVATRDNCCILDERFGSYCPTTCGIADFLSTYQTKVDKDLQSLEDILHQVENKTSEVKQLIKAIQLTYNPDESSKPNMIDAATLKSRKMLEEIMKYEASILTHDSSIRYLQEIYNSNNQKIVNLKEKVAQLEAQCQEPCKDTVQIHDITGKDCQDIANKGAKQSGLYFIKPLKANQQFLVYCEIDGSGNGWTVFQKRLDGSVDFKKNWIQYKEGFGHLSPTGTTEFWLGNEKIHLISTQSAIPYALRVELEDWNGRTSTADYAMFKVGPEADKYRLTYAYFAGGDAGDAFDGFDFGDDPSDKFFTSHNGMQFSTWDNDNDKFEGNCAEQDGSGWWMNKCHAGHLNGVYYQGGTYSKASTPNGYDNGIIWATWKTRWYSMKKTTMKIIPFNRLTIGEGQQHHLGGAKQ

fibrin [2] = target: T1, fibrin; details: ref [15]; cited from earlier work
fibrinogen = target: T2, fibrinogen (Homo sapiens, UniProt P02671+P02675+P02679); experiment: Fluorescence polarization, binding to fibrinogen; details: fluorescence anisotropy
T2 sequence (P02671 20-629 limits assumed): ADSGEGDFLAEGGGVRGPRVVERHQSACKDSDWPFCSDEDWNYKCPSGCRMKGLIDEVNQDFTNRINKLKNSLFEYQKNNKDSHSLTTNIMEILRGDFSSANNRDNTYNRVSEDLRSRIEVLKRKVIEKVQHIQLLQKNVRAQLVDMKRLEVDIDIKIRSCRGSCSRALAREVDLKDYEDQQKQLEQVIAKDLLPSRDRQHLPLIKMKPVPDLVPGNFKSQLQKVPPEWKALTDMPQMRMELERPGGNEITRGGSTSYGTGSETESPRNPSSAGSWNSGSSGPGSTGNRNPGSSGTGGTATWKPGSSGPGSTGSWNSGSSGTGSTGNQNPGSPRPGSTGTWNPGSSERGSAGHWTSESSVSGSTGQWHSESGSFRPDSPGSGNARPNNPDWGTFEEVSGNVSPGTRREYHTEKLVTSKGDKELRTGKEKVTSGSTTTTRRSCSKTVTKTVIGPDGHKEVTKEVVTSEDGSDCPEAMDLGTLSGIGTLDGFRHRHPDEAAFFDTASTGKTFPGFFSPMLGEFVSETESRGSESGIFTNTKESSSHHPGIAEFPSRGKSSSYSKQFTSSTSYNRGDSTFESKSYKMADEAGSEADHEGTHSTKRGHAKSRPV
T2 sequence (P02675 31-491): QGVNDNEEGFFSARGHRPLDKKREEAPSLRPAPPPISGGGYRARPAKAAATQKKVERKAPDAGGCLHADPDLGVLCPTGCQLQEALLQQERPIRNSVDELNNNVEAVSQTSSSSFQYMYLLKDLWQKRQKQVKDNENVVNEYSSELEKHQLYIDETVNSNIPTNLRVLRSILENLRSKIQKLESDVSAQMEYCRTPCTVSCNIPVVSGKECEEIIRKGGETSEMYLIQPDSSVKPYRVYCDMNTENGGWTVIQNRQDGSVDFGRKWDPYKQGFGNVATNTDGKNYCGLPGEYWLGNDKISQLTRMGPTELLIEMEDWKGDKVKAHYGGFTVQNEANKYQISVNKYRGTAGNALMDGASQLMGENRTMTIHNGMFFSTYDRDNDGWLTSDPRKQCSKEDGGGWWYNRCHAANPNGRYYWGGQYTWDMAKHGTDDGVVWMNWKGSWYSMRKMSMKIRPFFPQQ
T2 sequence (P02679 27-433 limits assumed): T1 sequence (P02679 27-433 limits assumed)

Compound: O=C([O-])CN(CCN(CC(=O)[O-])CC(=O)O)CCN(CC(=O)[O-])CC(=O)O.[Gd+3] [GdDTPA, diethylenetriaminepentaaceto gadolinium(III), reference compound]
- enhancement of 1/T1 in fibrin gel compared to buffer (fibrin [1]): no enhancement of 1/T1

Compound: DTPA-GYLCGDYTLCPD-NH2 ({DTPA}-GYLCGDYTLCPD-NH2; not fully specified (bridges); cysteine pairing not given here)
- fibrin binding (in words) (fibrin [2]): No measurable fibrin binding

Compound: CC[C@H](C)[C@H](NC(=O)[C@H](Cc1c[nH]c2ccccc12)NC(=O)[C@@H]1CSSC[C@H](NC(=O)[C@H](CCC(=O)O)NC(=O)[C@H](Cc2c[nH]c3ccccc23)NC(=O)[C@H](CCC(N)=O)NC(=O)CCCCCNC(=O)c2ccc3c(c2)C(=O)OC32c3ccc(O)cc3Oc3cc(O)ccc32)C(=O)N2CCC[C@H]2C(=O)N[C@@H](Cc2ccc(O)cc2)C(=O)NCC(=O)N[C@@H](CC(C)C)C(=O)N1)C(=O)N[C@@H](CCC(N)=O)C(N)=O [Tn6-2b-Fl, Fluor-Aca-QWECPYGLCWIQ] ({5FAM-Ahx}-QWECPYGLCWIQ-NH2; disulfide 4-9)
- fibrinogen binding weaker than to DD(E) (fibrinogen): 400 fold
